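Exposure lasted 48 hours, with cells grown in 96-well plates and compounds tested at five concentrations. At the GI50, growth is halved.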 Active and inactive are the calls of the source. Cut-off read from the data, not from the text of the source: active = GI50 up to about 1.1 µM and inactive = higher.
Columns and labels:
Experiment in all cases: DTP human tumour cell line panel, 48 h
[1] = test system: A549
[2] = test system: SF-268
[3] = test system: DLD-1
[4] = test system: SNB-78
[5] = test system: RXF 393
[6] = test system: OVCAR-3
[7] = test system: SR
[8] = test system: XF498
[9] = test system: HOP-18
[10] = test system: NCI-H23
[11] = test system: SK-MEL-2
[12] = test system: SF-539
[13] = test system: DMS-273
[14] = test system: U-251
[15] = test system: SW-620
[16] = test system: HL-60
[17] = test system: KM-20L2

Measured: GI50

NC(S)=Nc1cc(Cl)ccc1Cl
inactive: [1] > 100 µM | [2] > 100 µM | [3] > 100 µM | [4] > 100 µM | [5] 94 µM | [6] > 100 µM | [7] > 100 µM | [8] 94.6 µM | [9] > 100 µM | [10] > 100 µM | [11] > 100 µM | [12] > 100 µM | [13] > 100 µM | [14] > 100 µM | [15] > 100 µM | [16] > 100 µM | [17] > 100 µM

CC(C)(C)[Si](OC1CC(n2cnc3c(N)ncnc32)OC1CO)(c1ccccc1)c1ccccc1 (stereo not given)
inactive: [1] 15.2 µM | [2] 16.1 µM | [3] 15.5 µM | [4] > 100 µM | [5] 13.4 µM | [6] 16.6 µM | [7] 14.5 µM | [8] 10.4 µM | [9] 67.6 µM | [10] 13.9 µM | [11] 18.8 µM | [12] 20.2 µM | [13] 18.7 µM | [14] 17.1 µM | [15] 19 µM | [16] 41.4 µM | [17] 15.4 µM

CCOC(=O)[C@H]1Nc2c(cccc2[N+](=O)[O-])[C@H]2OCC[C@@H]12
inactive: [1] > 100 µM | [2] > 100 µM | [3] > 100 µM | [4] > 100 µM | [5] > 100 µM | [6] > 100 µM | [7] > 100 µM | [8] > 100 µM | [9] > 100 µM | [10] > 100 µM | [11] > 100 µM | [12] > 100 µM | [13] > 100 µM | [14] > 100 µM | [15] > 100 µM | [17] > 100 µM

Cn1c(=O)[nH]c2c(c1=O)C(=O)CN2
inactive: [1] > 100 µM | [2] > 100 µM | [3] > 100 µM | [4] > 100 µM | [5] > 100 µM | [7] > 100 µM | [8] > 100 µM | [9] > 100 µM | [11] > 100 µM | [12] > 100 µM | [13] > 100 µM | [14] > 100 µM | [15] > 100 µM | [16] > 100 µM | [17] > 100 µM

Source: ChEMBL document CHEMBL1201862, “PubChem BioAssay data set” (2004)
